# From patent US12673961B2 (Agios Pharmaceuticals, Inc., priority 2022, dated 2026)
# Molecular target: T1, human PAH with the R408W mutation (Homo sapiens, UniProt P00439, R408W)
# T1 construct: expressed in transfected cells
# T1 sequence (P00439 1-452 R408W): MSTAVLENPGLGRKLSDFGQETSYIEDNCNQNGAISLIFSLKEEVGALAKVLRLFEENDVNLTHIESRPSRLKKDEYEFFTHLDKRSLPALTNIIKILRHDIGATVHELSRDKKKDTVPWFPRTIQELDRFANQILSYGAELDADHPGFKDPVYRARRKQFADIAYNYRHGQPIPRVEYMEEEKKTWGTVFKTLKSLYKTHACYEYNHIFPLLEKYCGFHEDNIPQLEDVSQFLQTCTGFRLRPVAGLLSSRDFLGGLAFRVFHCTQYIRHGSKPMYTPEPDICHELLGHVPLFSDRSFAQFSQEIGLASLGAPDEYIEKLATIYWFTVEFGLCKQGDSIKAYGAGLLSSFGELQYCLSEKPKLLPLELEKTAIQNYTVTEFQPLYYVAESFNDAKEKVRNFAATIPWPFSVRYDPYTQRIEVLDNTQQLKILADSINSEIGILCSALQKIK
# Assay: Cell Based Phenylalanine Flux Assay;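 further: Ten-point dose curve from 2-fold serial dilutions, run in duplicate at 0.5% DMSO final, tracer step used 20 µM sepiapterin and 800 µM labeled phenylalanine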
# Parameters: scale not given here
# Conditions: A375 cells expressing R408W PAH; 24 hrs with compound, then 20 μM sepiapterin and 800 μM 13C9,15N-Phenylalanine for 4 hours; 13C-Tyrosine in media by LC-MS; average where tested multiple times
row,SMILES,AC50
1,"Cc1cccn2nc(C3c4nc[nH]c4CCN3C(=O)c3ccnn3C(F)(F)F)cc12 (single isomer, unassigned)","E, E"
2,Cc1cccn2nc(C3c4nc[nH]c4CCN3C(=O)c3ccnn3C(F)(F)F)cc12 (centres unmarked),"E, E"

# Same assay, conditions: A375 cells expressing R408W PAH; 24 hrs with compound, then 20 μM sepiapterin and 800 μM 13C9,15N-Phenylalanine for 4 hours; 13C-Tyrosine in media by LC-MS; average where tested multiple times; read-out: AC50
row,AC50,SMILES
1,1000 to 5000 nM,N#Cc1ncoc1C(=O)N1CCc2[nH]cnc2C1c1nn2ccccc2c1Br (centres unmarked)
2,> 5000 nM,COc1cccn2nc(C3c4nc[nH]c4CCN3C(=O)c3nnc(C(C)(C)O)o3)cc12 (centres unmarked)
3,1000 to 5000 nM,O=C(c1nnc(-c2cn[nH]c2)o1)N1CCc2[nH]cnc2C1c1cc2c(F)cccn2n1 (centres unmarked)
4,> 5000 nM,Cn1cc(N2CCc3[nH]cnc3C2c2cc3ccccn3n2)cn1 (centres unmarked)
5,> 5000 nM,"Fc1cccc2cc([C@H]3c4nc[nH]c4CCN3c3ncccn3)nn12 (single isomer, unassigned)"

row,SMILES,AC50
1,"Cn1nc(C2CC2)nc1C(=O)N1CCc2[nH]cnc2C1c1cc2c(F)cccn2n1 (single isomer, unassigned)",1000 to 5000 nM
2,"O=C(c1cnc(-c2ncccn2)o1)N1CCc2[nH]cnc2[C@H]1c1cc2ccccn2n1 (single isomer, unassigned)",1000 to 5000 nM
3,"COc1cccn2nc([C@@H]3c4nc[nH]c4CCN3c3nnc(-c4ccccn4)o3)cc12 (single isomer, unassigned)",1000 to 5000 nM
4,"Cn1cncc1-c1nnc(C(=O)N2CCc3[nH]cnc3C2c2cc3c(C(F)(F)F)cccn3n2)o1 (single isomer, unassigned) [4S enantiomer of 2-(1-methyl-1H-imidazol-5-yl)-5-14-[4-(trif]",1000 to 5000 nM

# Same assay, conditions: A375 cells expressing human R408W PAH; 24 hrs compound incubation; 13C-Tyrosine by LC-MS; average where tested multiple times; read-out: AC50
row,SMILES,AC50
1,"O=C(c1nnc(C2CC2)o1)N1CCc2[nH]cnc2[C@@H]1c1cc2cccc(Cl)n2n1 [Example 1136, (R)-(4-(7-chloropyrazolo [1,5-a]pyridin-2-yl)-6,7-dihydro-1H-imidazo[4,5-c]pyridin-5(4H)-yl)(5-cyclopropyl-1,3,4-oxadiazol-2-yl)methanone]",1000 to 5000 nM
2,"O=C(c1nnc(C2CC2)o1)N1CCc2[nH]cnc2[C@H]1c1cc2cccc(F)n2n1 [Example 1246, (S)-(5-cyclopropyl-1,3,4-oxadiazol-2-yl)(4-(7-fluoropyrazolo[1,5-a]pyridin-2-yl)-6,7-dihydro-1H-imidazo[4,5-c]pyridin-5(4H)-yl)methanone]",500 to 1000 nM
3,"Cn1nc(Cl)cc1C(=O)N1CCc2[nH]cnc2[C@@H]1c1cc2ccccn2n1 [Example 681, (R)-(3-chloro-1-methyl-1H-pyrazol-5-yl)(4-(pyrazolo [1,5-a]pyridin-2-yl)-6,7-dihydro-1H-imidazo[4,5-c]pyridin-5(4H)-yl)methanone]",> 5000 nM

# The remaining lines, values ahead:
row,AC50,SMILES
1,> 5000 nM,"COc1cccn2nc([C@H]3c4nc[nH]c4CCN3C(=O)c3nnc(-c4ccccn4)o3)cc12 [Example 778, (R)-(4-(4-methoxypyrazolo [1,5-a]pyridin-2-yl)-6,7-dihydro-1H-imidazo[4,5-c]pyridin-5(4H)-yl)(5-(pyridin-2-yl)-1,3,4-oxadiazol-2-yl)methanone]"
2,< 500 nM,"COc1ccc(-c2nnc(C(=O)N3CCc4[nH]cnc4[C@H]3c3cc4c(Cl)cccn4n3)o2)nc1 [Example 1299, (S)-(4-(4-chloropyrazolo [1,5-a]pyridin-2-yl)-6,7-dihydro-1H-imidazo[4,5-c]pyridin-5(4H)-yl)(5-(5-methoxypyridin-2-yl)-1,3,4-oxadiazol-2-yl)methanone]"

# Same assay, conditions: A375 cells expressing human R408W PAH; 24 hrs with compound, then sepiapterin and 13C9,15N-Phenylalanine for 4 hours; 13C-Tyrosine by LC-MS; average where tested multiple times; read-out: AC50
row,SMILES,AC50
1,"Cn1cc(-c2nnc(C(=O)N3CCc4[nH]cnc4[C@H]3c3cc4cccc(C(F)F)n4n3)o2)cn1 [Example 1406, (S)-(4-(7-(difluoromethyl)pyrazolo[1,5-a]pyridin-2-yl)-6,7-dihydro-1H-imidazo [4,5-c]pyridin-5(4H)-yl)(5-(1-methyl-1H-pyrazol-4-yl)-1,3,4-oxadiazol-2-yl)methanone]",< 500 nM
2,"CC(C)c1cccn2nc([C@@H]3c4nc[nH]c4CCN3C(=O)c3nnc(-c4ccn(C(F)F)n4)o3)cc12 [Example 1983, (S)-(5-(1-(difluoromethyl)-1H-pyrazol-3-yl)-1,3,4-oxadiazol-2-yl)(4-(4-isopropylpyrazolo[1,5-a]pyridin-2-yl)-1,4,6,7-tetrahydro-5H-imidazo[4,5-c]pyridin-5-yl)methanone]",< 500 nM
3,"CC1(c2nnc(N3CCc4[nH]cnc4[C@@H]3c3cc4c(Cl)cccn4n3)o2)CC1 [Example 2258, (R)-2-(4-(4-chloropyrazolo [1,5-a]pyridin-2-yl)-1,4,6,7-tetrahydro-5H-imidazo [4,5-c]pyridin-5-yl)-5-(1-methylcyclopropyl)-1,3,4-oxadiazole]",> 5000 nM
4,"O=C(c1cn[nH]c1C(F)F)N1CCc2[nH]cnc2[C@H]1c1cc2ccccn2n1 [Example 2366, (S)-(5-(difluoromethyl)-1H-pyrazol-4-yl)(4-(pyrazolo[1,5-a]pyridin-2-yl)-6,7-dihydro-1H-imidazo[4,5-c]pyridin-5(4H)-yl)methanone]",1000 to 5000 nM
5,"O=C(c1nnc(C2CCC2)o1)N1CCc2[nH]cnc2[C@H]1c1cc2c(C(F)F)cccn2n1 [Example 1520, (S)-(5-cyclobutyl-1,3,4-oxadiazol-2-yl)(4-(4-(difluoromethyl)pyrazolo [1,5-a]pyridin-2-yl)-6,7-dihydro-1H-imidazo[4,5-c]pyridin-5(4H)-yl)methanone]",< 500 nM
6,"O=C(c1nnc(-c2ccccn2)o1)N1CCc2[nH]cnc2[C@@H]1c1cc2cccc(C(F)F)n2n1 [Example 1420, (R)-(4-(7-(difluoromethyl)pyrazolo[1,5-a]pyridin-2-yl)-6,7-dihydro-1H-imidazo [4,5-c]pyridin-5(4H)-yl)(5-(pyridin-2-yl)-1,3,4-oxadiazol-2-yl)methanone]",> 5000 nM
7,"Fc1ccc(-c2nnc(N3CCc4[nH]cnc4[C@@H]3c3cc4c(C(F)F)cccn4n3)o2)cc1 [Example 1912, (R)-2-(4-(4-(difluoromethyl)pyrazolo[1,5-a]pyridin-2-yl)-1,4,6,7-tetrahydro-5H-imidazo[4,5-c]pyridin-5-yl)-5-(4-fluorophenyl)-1,3,4-oxadiazole]",> 5000 nM

# More lines, now with the values ahead:
row,AC50,SMILES
1,< 500 nM,"O=C(c1nnc(-c2ccn(C(F)(F)F)n2)o1)N1CCc2[nH]cnc2[C@H]1c1cc2c(F)cccn2n1 [Example 1482, (S)-(4-(4-fluoropyrazolo[1,5-a]pyridin-2-yl)-6,7-dihydro-1H-imidazo[4,5-c]pyridin-5(4H)-yl)(5-(1-(trifluoromethyl)-1H-pyrazol-3-yl)-1,3,4-oxadiazol-2-yl)methanone]"
2,1000 to 5000 nM,"O=C(c1nnc(-c2cnn(C(F)(F)F)c2)o1)N1CCc2[nH]cnc2[C@@H]1c1cc2c(F)cccn2n1 [Example 1541, (R)-(4-(4-fluoropyrazolo [1,5-a]pyridin-2-yl)-6,7-dihydro-1H-imidazo[4,5-c]pyridin-5(4H)-yl)(5-(1-(trifluoromethyl)-1H-pyrazol-4-yl)-1,3,4-oxadiazol-2-yl)methanone]"
3,< 500 nM,"CC(F)(F)c1nnc(N2CCc3[nH]cnc3[C@H]2c2cc3c(Cl)cccn3n2)o1 [Example 2233, (S)-2-(4-(4-chloropyrazolo [1,5-a]pyridin-2-yl)-1,4,6,7-tetrahydro-5H-imidazo [4,5-c]pyridin-5-yl)-5-(1,1-difluoroethyl)-1,3,4-oxadiazole]"
4,1000 to 5000 nM,"Cc1cccc2cc([C@H]3c4nc[nH]c4CCN3C(=O)c3nnc(-c4ccn(C(F)(F)F)n4)o3)nn12 [Example 1511, (R)-(4-(7-methylpyrazolo [1,5-a]pyridin-2-yl)-6,7-dihydro-1H-imidazo[4,5-c]pyridin-5(4H)-yl)(5-(1-(trifluoromethyl)-1H-pyrazol-3-yl)-1,3,4-oxadiazol-2-yl)methanone]"
5,< 500 nM,"Fc1ccc(-c2nnc(N3CCc4[nH]cnc4[C@H]3c3cc4c(F)cccn4n3)o2)cc1 [Example 1953, (S)-2-(4-fluorophenyl)-5-(4-(4-fluoropyrazolo[1,5-a]pyridin-2-yl)-1,4,6,7-tetrahydro-5H-imidazo[4,5-c]pyridin-5-yl)-1,3,4-oxadiazole]"
6,> 5000 nM,Cn1ccc(-c2nnc(C(=O)N3CCc4[nH]cnc4[C@@H]3c3cc4c(C5CC5)cccn4n3)o2)n1 [Example 1901]
7,> 5000 nM,"Cc1cccn2nc([C@H]3c4nc[nH]c4CCN3C(=O)c3nnc(-c4ccccn4)s3)cc12 [Example 1971, (R)-(4-(4-methylpyrazolo [1,5-a]pyridin-2-yl)-1,4,6,7-tetrahydro-5H-imidazo[4,5-c]pyridin-5-yl)(5-(pyridin-2-yl)-1,3,4-thiadiazol-2-yl) methanone]"
8,500 to 1000 nM,"Cc1cccc2cc([C@@H]3c4nc[nH]c4CCN3C(=O)c3nnc(C(C)C)o3)nn12 [Example 1490, (S)-(5-isopropyl-1,3,4-oxadiazol-2-yl)(4-(7-methylpyrazolo[1,5-a]pyridin-2-yl)-6,7-dihydro-1H-imidazo[4,5-c]pyridin-5(4H)-yl)methanone]"
9,< 500 nM,"O=C(c1nnc(-c2cnccn2)o1)N1CCc2[nH]cnc2[C@H]1c1cc2c(C(F)F)cccn2n1 [Example 1414, (S)-(4-(4-(difluoromethyl)pyrazolo[1,5-a]pyridin-2-yl)-6,7-dihydro-1H-imidazo [4,5-c]pyridin-5(4H)-yl)(5-(pyrazin-2-yl)-1,3,4-oxadiazol-2-yl)methanone]"
